Assay results published in patent US9927424B2, “Assays for identifying compounds that modulate bitter taste” (Chromocell Corporation, priority 2013, dated 2018).

What was measured:
[1] = molecular target: TAS2R16 (Homo sapiens, UniProt Q9NYV7); settings: PCT/US12/61400; cited from earlier work
[2] = molecular target: TAS2R1 (Homo sapiens, UniProt Q9NYW7); settings: PCT/US12/61400; cited from earlier work
[3] = molecular target: T1, TAS2R13 (Homo sapiens, UniProt Q9NYV9); settings: PCT/US12/61400; cited from earlier work
T1 construct: expressed in transfected cells
T1 sequence (Q9NYV9 1-303): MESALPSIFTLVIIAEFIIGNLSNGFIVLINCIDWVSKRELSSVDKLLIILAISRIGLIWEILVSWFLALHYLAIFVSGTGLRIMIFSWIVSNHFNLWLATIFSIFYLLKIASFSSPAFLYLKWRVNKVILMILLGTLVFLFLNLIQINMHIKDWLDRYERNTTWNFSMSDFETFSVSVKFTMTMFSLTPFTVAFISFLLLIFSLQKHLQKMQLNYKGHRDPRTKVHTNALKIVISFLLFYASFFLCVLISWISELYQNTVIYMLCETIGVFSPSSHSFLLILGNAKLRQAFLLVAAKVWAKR

[4] = molecular target: T2, TAS2R14 (Homo sapiens, UniProt Q9NYV8); settings: PCT/US12/61400; cited from earlier work
T2 construct: expressed in transfected cells
T2 sequence (Q9NYV8 1-317): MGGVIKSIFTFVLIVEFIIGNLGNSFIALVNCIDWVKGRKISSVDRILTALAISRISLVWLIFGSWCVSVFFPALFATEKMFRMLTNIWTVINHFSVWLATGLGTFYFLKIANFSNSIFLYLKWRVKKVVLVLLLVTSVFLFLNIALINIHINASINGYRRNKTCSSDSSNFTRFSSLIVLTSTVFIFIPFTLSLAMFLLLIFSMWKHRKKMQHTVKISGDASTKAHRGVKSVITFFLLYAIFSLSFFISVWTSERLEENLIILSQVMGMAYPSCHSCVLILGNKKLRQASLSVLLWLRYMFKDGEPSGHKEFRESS

[5] = molecular target: T3, TAS2R39 (Homo sapiens, UniProt P59534); assay: Calcium fluorescence functional assay, TAS2R39 cell line with mouse Gα15; type: cell-based
T3 construct: expressed in transfected cells
T3 sequence (P59534 1-338): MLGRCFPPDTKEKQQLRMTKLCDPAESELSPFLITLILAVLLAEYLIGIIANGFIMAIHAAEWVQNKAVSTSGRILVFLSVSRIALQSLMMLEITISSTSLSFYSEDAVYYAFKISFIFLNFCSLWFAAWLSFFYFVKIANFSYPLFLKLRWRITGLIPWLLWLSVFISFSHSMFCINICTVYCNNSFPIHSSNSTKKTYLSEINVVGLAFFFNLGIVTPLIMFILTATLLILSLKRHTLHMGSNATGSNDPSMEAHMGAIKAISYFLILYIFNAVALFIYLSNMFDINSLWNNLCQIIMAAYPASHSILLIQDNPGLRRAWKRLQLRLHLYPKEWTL
Description: (§1) A panel of cell lines expressing eight specific bitter taste receptors, a subset of the panel of twenty-five bitter receptors described in International Patent Application Publication WO 2010/088633 (see, e.g., Example 26), was used for the purpose of these analyses. Accordingly, each cell line of the panel expressed a human bitter taste receptor and mouse Gα15 signaling protein.
(§2) Each of the Examples below utilized the following functional assay: • Day 1: Stable cell lines were seeded onto black wall/clear bottom 96-well, plates (e.g., Corning, 3904). Approximately 40K cells were added per well and incubated at 37° C., 5% CO2 overnight in cell growth media (DMEM (Sigma, D5796) supplemented with 10% Fetal Bovine Serum (Sigma, 5178), 2 mM Glutamine (Sigma, G7513)). • Day 2: Growth media was discarded and cells were incubated at 37° C., 5% CO2 for 60 minutes in 100 ul of load solution containing 1× Ca-3 dye (Molecular Devices, R8090), 1% DMSO in buffer containing 130 mM NaCl, 2 mM CaCl2, 5 mM KCl, 1.2 mM MgCl2, 10 mM HEPES and 10 mM Glucose (pH 7.0). Probenecid was not included in the load solution. • Functional assay: After dye loading, cell plates were placed in a fluorescent plate reader (e.g., FDSS6000 (Hamamatsu, Japan)) and receptor stimulation was measured by adding 50 ul of 3× concentrated ligand/agonist stock. Fluorescence was monitored continuously for 10 s before agonist addition and for 100-250 s after stimulation with agonist.
(§3) Receptor Activation is defined as follows: • % Activation=[((Maximum signal fluorescence−Minimum signal fluorescence)−(Maximum control fluorescence−Minimum control fluorescence))/(Maximum buffer fluorescence−Minimum buffer fluorescence)]*100 • Functional Response=[(Maximum signal fluorescence−Minimum signal fluorescence)−(Maximum control fluorescence−Minimum control fluorescence)] • Signal fluorescence: refers to the change in fluorescence seen with addition of ligand • Control fluorescence: refers to the change in fluorescence seen with addition of buffer (negative control) • Calcium signals from ligand and control were normalized to the basal fluorescence of the cells prior to the stimulation.
(§4) A concentration analysis was performed and EC50 values were calculated by nonlinear regression using the formula: Y=Bottom+(Top−Bottom)/(1+10^((Log EC50−X)*Hill Slope)), X=log of dose or concentration, Y=Response (increasing as X increases), Top=maximum signal, Bottom=minimum signal. EC50 (half maximal effective concentration) refers to the molar concentration of the agonist which produces 50% of the maximum possible effective response from that agonist.

[6] = molecular target: T4, TAS2R38 (PAV) (Homo sapiens, UniProt P59533, A49P/I296V); assay: Calcium fluorescence functional assay, TAS2R38 (PAV) cell line with mouse Gα15; type: cell-based
T4 construct: expressed in transfected cells
T4 sequence (P59533 1-333 A49P/I296V): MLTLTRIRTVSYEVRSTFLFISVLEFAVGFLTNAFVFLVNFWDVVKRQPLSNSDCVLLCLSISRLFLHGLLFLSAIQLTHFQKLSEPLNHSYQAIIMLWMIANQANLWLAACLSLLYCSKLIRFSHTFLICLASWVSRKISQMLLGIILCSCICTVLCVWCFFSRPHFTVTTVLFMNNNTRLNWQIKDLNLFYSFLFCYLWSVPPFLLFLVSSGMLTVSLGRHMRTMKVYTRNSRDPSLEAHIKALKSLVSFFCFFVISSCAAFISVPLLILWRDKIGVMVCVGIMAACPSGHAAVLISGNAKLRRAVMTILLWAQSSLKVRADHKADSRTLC
Description: as §1, §2, §3, §4

[7] = molecular target: T5, TAS2R44 (Homo sapiens, UniProt P59538); settings: PCT/US12/61400; cited from earlier work
T5 construct: expressed in transfected cells
T5 sequence (P59538 1-309): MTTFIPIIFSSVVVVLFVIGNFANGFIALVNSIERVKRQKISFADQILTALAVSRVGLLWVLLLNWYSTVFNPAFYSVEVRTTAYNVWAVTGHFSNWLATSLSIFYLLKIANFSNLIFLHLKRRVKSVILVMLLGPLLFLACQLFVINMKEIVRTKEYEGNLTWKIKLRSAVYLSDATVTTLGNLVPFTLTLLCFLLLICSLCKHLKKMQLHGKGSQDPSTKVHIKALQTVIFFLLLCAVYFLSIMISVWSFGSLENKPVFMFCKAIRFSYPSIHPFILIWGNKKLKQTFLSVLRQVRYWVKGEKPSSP

[8] = molecular target: T6, TAS2R4 (Homo sapiens, UniProt Q9NYW5); settings: PCT/US12/61400; cited from earlier work
T6 construct: expressed in transfected cells
T6 sequence (Q9NYW5 1-299): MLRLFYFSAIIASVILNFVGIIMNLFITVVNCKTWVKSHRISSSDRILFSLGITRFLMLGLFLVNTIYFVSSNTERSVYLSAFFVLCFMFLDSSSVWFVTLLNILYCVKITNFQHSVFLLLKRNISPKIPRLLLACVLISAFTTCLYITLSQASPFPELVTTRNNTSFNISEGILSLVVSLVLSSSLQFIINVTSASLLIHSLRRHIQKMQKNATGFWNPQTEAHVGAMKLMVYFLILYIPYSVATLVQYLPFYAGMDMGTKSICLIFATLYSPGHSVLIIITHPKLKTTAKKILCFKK

[9] = molecular target: T7, TAS2R9 (Homo sapiens, UniProt Q9NYW1); settings: PCT/US12/61400; cited from earlier work
T7 construct: expressed in transfected cells
T7 sequence (Q9NYW1 1-312): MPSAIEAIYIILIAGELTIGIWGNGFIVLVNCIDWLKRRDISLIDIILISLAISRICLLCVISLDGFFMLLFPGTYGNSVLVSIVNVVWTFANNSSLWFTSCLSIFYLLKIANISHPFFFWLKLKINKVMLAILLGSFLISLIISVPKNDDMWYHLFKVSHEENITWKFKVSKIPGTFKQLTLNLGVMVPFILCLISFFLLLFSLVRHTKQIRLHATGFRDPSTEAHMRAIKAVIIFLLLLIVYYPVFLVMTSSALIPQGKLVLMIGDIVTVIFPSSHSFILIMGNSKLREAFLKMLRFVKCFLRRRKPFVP

[10] = molecular target: T2, TAS2R14; assay: Calcium fluorescence functional assay, TAS2R14 cell line with mouse Gα15; type: cell-based; settings: 20 mM tastant; change in intracellular calcium
Description: as §1, §2, §3, §4

[11] = molecular target: T6, TAS2R4; assay: Calcium fluorescence functional assay, TAS2R4 cell line with mouse Gα15; type: cell-based; settings: 20 mM tastant; change in intracellular calcium
Description: as §1, §2, §3, §4

[12] = molecular target: T1, TAS2R13; assay: Calcium fluorescence functional assay, TAS2R13 cell line with mouse Gα15; type: cell-based; settings: 20 mM tastant; change in intracellular calcium
Description: as §1, §2, §3, §4

[13] = molecular target: T5, TAS2R44; assay: Calcium fluorescence functional assay, TAS2R44 cell line with mouse Gα15; type: cell-based; settings: 20 mM tastant; change in intracellular calcium
Description: as §1, §2, §3, §4

[14] = molecular target: T7, TAS2R9; assay: Calcium fluorescence functional assay, TAS2R9 cell line with mouse Gα15; type: cell-based; settings: 20 mM tastant; change in intracellular calcium
Description: as §1, §2, §3, §4

[15] = 20 mM tastant, change in intracellular calcium
[16] = approximately, increasing concentrations of tastant

Sequence of TAS2R1 (Q9NYW7 whole entry): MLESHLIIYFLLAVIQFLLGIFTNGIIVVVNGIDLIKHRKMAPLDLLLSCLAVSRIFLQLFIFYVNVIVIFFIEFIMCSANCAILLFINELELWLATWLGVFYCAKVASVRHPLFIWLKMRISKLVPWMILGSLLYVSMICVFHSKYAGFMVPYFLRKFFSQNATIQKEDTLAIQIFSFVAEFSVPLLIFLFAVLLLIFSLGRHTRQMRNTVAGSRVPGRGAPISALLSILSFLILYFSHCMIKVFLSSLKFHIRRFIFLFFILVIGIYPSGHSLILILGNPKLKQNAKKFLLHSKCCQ
Sequence of TAS2R16 (Q9NYV7 whole entry): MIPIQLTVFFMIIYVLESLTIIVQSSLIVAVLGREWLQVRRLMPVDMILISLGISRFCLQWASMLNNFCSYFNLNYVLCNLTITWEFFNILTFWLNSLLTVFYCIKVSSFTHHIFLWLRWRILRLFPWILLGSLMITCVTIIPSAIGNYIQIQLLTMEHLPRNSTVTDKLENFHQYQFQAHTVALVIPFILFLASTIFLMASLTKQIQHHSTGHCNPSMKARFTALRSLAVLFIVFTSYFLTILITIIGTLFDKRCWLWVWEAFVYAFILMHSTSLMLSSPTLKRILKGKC

SMILES	TAS2R16 response to stimulation, previously shown [1]	TAS2R1 response to stimulation, previously shown [2]	TAS2R13 response to stimulation, previously shown [3]	TAS2R14 response to stimulation, previously shown [4]	TAS2R39 bitter receptor activity (functional response) [5, 15]	EC50 [5, 16] [mM]	TAS2R38 (PAV) bitter receptor activity (functional response) [6, 15]	EC50 [6, 16] [mM]	TAS2R44 response to stimulation, previously shown [7]	TAS2R4 response to stimulation, previously shown [8]	TAS2R9 response to stimulation, previously shown [9]	TAS2R14 bitter receptor activity (functional response) [10]	TAS2R4 bitter receptor activity (functional response) [11]	TAS2R13 bitter receptor activity (functional response) [12]	TAS2R44 bitter receptor activity (functional response) [13]	TAS2R9 bitter receptor activity (functional response) [14]
CC1=CC(=O)NS(=O)(=O)O1 [Acesulfame K]	specifically respond	specifically respond	specifically respond	specifically respond	strongly and specifically responded	5 to 10	strongly and specifically responded	5 to 10	specifically respond	specifically respond	specifically respond	–	–	–	–	–
CC(O)C(=O)[O-].[K+] (stereo not shown) [potassium lactate]	–	–	–	–	–	–	–	–	–	–	–	activate	activate	activate	activate	activate
